Here are results for 18 compounds from patent US8796268B2, “Heteroaryls and uses thereof” (Millennium Pharmaceuticals, Inc., priority 2010, dated 2014).

A value given as a limit tells only on which side of the number the result lay.

Experiment [1] has as its target T1, Human PI3K alpha (Homo sapiens, UniProt P42336).
T1 construct: His (N); host or cells: SF9 insect cells (baculovirus)
In words: Human PI3K alpha enzyme assay (HTRF). The experiment is classed as biochemical. The note with it: for IC50: read-out: PI3Kalpha IC50.

Experiment [2] has as its target T2, Human PI3K beta (Homo sapiens, UniProt P42338).
T2 construct: His (N); host or cells: SF9 insect cells (baculovirus)
Put plainly: Human PI3K beta enzyme assay (HTRF). The experiment is classed as biochemical. The note with it: for IC50: read-out: PI3 Kbeta IC50. In outline: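 Compounds were mixed with 25 uM ATP, then with 3.5 uM di-C8 PI(4,5)P2 and His-tagged PI3K isoform (β 5.25 nM, δ 0.75 nM, γ 5 nM) at pH 7.00. After 30 min at room temperature, EDTA stopped the reaction and PIP3 was measured by HTRF over 1 h.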
In general terms: In TR-FRET formats the signal depends on donor and acceptor labels being close together.

T1 sequence (P42336 whole entry): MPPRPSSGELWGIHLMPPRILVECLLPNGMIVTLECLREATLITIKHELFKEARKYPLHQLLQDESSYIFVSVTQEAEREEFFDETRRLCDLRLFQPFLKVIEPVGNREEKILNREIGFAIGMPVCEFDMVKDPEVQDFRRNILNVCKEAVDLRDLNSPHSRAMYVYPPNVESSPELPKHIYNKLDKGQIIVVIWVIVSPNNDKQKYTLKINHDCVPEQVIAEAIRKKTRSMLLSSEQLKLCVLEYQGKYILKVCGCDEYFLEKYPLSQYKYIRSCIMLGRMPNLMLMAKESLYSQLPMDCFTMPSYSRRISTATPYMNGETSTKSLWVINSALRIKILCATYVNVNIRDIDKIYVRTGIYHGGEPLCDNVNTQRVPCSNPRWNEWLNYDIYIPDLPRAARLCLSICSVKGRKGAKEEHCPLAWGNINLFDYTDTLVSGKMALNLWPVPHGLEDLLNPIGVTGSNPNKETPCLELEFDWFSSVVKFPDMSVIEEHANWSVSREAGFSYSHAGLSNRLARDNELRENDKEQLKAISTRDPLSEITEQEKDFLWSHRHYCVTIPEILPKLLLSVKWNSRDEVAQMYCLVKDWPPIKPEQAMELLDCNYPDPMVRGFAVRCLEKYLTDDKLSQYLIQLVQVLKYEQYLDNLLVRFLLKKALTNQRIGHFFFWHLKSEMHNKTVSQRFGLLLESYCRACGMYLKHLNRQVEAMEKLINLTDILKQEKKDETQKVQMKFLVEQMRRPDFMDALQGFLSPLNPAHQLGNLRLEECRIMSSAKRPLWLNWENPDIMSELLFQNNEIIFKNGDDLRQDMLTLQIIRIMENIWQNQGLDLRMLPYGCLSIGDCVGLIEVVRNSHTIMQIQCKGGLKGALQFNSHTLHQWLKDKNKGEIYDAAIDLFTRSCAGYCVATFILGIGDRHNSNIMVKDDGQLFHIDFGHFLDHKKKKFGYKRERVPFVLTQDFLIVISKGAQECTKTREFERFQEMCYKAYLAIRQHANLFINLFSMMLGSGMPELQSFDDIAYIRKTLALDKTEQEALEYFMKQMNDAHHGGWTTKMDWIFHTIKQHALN
T1 sequence (P27986 whole entry partner): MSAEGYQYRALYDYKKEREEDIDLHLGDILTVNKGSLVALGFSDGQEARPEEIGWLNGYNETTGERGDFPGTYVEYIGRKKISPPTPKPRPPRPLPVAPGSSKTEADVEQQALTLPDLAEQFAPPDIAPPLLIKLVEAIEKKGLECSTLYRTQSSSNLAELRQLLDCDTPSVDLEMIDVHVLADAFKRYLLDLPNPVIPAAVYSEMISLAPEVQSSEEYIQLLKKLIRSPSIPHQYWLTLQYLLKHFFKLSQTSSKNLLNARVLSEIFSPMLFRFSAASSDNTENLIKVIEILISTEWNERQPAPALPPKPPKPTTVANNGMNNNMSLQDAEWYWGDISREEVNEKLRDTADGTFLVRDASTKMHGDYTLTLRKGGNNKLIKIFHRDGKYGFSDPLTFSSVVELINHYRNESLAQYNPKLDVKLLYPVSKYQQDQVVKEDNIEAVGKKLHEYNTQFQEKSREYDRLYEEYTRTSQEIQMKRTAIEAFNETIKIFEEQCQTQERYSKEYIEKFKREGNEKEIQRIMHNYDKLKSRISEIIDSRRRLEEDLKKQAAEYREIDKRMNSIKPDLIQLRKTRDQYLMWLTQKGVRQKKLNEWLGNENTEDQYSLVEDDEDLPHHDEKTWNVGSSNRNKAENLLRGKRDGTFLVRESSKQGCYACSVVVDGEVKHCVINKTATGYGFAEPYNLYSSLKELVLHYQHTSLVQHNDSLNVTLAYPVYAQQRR
T2 sequence (P42338 whole entry): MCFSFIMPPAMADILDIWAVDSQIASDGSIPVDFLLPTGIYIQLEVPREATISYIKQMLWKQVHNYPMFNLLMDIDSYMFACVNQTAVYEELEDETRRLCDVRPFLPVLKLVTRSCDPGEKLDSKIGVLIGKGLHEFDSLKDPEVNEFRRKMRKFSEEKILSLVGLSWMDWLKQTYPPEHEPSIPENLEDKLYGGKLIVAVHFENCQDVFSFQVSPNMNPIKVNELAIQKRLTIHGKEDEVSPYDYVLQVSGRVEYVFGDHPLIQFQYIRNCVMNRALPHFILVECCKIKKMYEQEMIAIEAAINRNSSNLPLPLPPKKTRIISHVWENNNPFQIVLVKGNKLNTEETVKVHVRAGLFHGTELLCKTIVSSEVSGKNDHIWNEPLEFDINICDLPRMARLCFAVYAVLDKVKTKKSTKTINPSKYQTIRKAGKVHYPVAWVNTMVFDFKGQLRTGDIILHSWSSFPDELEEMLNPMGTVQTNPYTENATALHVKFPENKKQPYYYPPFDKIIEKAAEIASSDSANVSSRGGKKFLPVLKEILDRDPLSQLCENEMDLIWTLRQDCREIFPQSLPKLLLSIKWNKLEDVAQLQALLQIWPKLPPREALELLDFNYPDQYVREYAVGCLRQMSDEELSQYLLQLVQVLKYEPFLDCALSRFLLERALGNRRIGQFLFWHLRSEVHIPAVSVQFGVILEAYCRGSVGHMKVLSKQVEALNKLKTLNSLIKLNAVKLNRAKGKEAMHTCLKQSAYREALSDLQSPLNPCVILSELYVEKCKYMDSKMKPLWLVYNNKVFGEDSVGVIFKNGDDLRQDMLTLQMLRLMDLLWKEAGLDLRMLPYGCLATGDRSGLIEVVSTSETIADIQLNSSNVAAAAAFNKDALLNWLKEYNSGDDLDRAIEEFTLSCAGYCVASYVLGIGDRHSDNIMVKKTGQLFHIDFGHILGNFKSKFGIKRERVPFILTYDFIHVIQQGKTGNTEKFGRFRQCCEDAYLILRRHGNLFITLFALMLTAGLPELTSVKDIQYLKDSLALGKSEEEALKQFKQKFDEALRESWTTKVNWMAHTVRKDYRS
T2 sequence (P27986 whole entry partner): as the sequence (P27986 whole entry partner) above

With `Cc1nn2ccc(CN)cc2c1-c1nc(Cc2ccc(Cl)cc2)c(-c2nnc[nH]2)s1` [Compound 1, 1-{3-[4-(4-chlorobenzyl)-5-(4H-1,2,4-triazol-3-yl)-1,3-thiazol-2-yl]-2-methylpyrazolo[1,5-a]pyridin-5-yl}methanamine], the IC50 in experiment [1] and in experiment [2] was 0.1 to 1 µM each time.
Consider `OCc1cc(-c2cc(C(O)c3ccc(Cl)cc3)c(-c3nnc[nH]3)s2)ccn1` (stereo not drawn) [Compound 8], for which the IC50 (as a rule, the point on the concentration scale where inhibition reaches its midpoint) in experiment [1] is over 1 µM; in experiment [2], 0.1 to 1 µM.
In the case of `CC(=O)Nc1cc(-c2nc(NC(=O)c3ccccc3)c(-c3ncc[nH]3)s2)ccn1` [Compound 29, N-(2-(2-acetamidopyridin-4-yl)-5-(1H-imidazol-2-yl)thiazol-4-yl)benzamide], the IC50 in experiment [1] is under 0.1 µM; in experiment [2], over 1 µM.
Consider `O[C@@H](c1ccc(Cl)cc1)c1cc(-c2ccncc2)sc1-c1nnc[nH]1` [Compound 84], for which the IC50 in experiment [1] was over 1 µM; in experiment [2] it was 0.1 to 1 µM.
`Cc1nn2ccc(CNCc3ccccc3)cc2c1-c1nc(Cc2ccc(Cl)cc2)c(-c2nnc[nH]2)s1` [Compound 32]: the half-inhibitory concentration (IC50) in experiment [1] and in experiment [2] was 0.1 to 1 µM each time.
Regarding `CC(=O)Nc1cc(-c2cc(C(c3ccc(Cl)cc3)N(C)C)c(-c3nnc[nH]3)s2)ccn1` (stereo not drawn) [Compound 86], the values for the IC50 in experiment [1] and in experiment [2] were 0.1 to 1 µM and under 0.1 µM, respectively.
For `CNc1cc(-c2nc(Cc3ccc(Cl)cc3)c(-c3nnc[nH]3)s2)ccn1` [Compound 63], in that order: over 1 µM and over 1 µM.
For `OC(c1ccc(Cl)cc1)c1cc(-c2ccncc2Cl)sc1-c1nc[nH]n1` (stereo not drawn) [Compound 25], the IC50 in experiment [1] is over 1 µM; in experiment [2] it was 0.1 to 1 µM.
For the compound `N#Cc1c(-c2ccncc2)sc(C(=O)O)c1Cc1ccc(Cl)cc1` [Compound 36], the IC50 in experiment [1] was over 1 µM; in experiment [2] it was under 0.1 µM.
For `Clc1ccc(Cc2nc(-c3ccncc3)sc2-c2nnc[nH]2)cc1Cl` [Compound 7], in that order: over 1 µM and under 0.1 µM.
`O=C(O)c1sc(-c2ccncc2)nc1Cc1ccc(Cl)cc1` [Compound 80, 4-(4-chlorobenzyl)-2-(pyridin-4-yl)thiazole-5-carboxylic acid]: the figures for the IC50 in experiment [1] and in experiment [2] were over 1 µM and under 0.1 µM, respectively.
With `OC(c1ccc(Cl)cc1)c1cc(-c2ccnc3sccc23)sc1-c1nnc[nH]1` (stereo not drawn) [Compound 57], the IC50 in experiment [1] and in experiment [2] was 0.1 to 1 µM each time.
With `N#Cc1c(-c2ccnnc2)sc(-c2nnc[nH]2)c1Cc1ccc2ccccc2c1` [Compound 88, 4-(2-naphthylmethyl)-2-pyridazin-4-yl-5-(4H-1,2,4-triazol-3-yl)thiophene-3-carbonitrile], the IC50 in experiment [1] is over 1 µM; in experiment [2] it was under 0.1 µM.
With `Clc1ccc(Cc2nc(-c3ccncc3)sc2-c2nnc[nH]2)cc1` [Compound 76, 4-(4-chlorobenzyl)-2-(pyridin-4-yl)-5-(4H-1,2,4-triazol-3-yl)thiazole], the IC50 was over 1 µM in experiment [1] and 0.1 to 1 µM in experiment [2].
Regarding `O=C(O)c1sc(N2CCOCC2)nc1Cc1ccc(Cl)cc1F` [Compound 101], the inhibition (as a rule, the change of the read-out against control, counted positive when it falls) at 1.1 µM in experiment [1] (at a 1.1 μM concentration, read-out: PI3Kα Percent Inhibition) came to 30%; in experiment [2] (at a 1.1 μM concentration, read-out: PI3β Percent Inhibition) it was 105%.
For `N#Cc1cc(-c2cc(C(O)c3ccc(Cl)cc3)c(-c3nnc[nH]3)s2)ccn1` (stereo not drawn) [Compound 81, 4-(4-((4-chlorophenyl)(hydroxy)methyl)-5-(4H-1,2,4-triazol-3-yl)thiophen-2-yl)picolinonitrile], the IC50 was over 1 µM in experiment [1] and under 0.1 µM in experiment [2].
Regarding `Clc1ccc(Cc2nc(-c3ccnc4[nH]ccc34)sc2-c2ncn[nH]2)cc1` [Compound 53], the concentration for half-maximal inhibition (IC50) in experiment [1] and in experiment [2] was 0.1 to 1 µM in each case.
For `O[C@@H](c1ccc(Cl)cc1)c1cc(-c2ccnc(Cl)c2)sc1-c1nnc[nH]1` (single isomer, unassigned) [Compound 40], the IC50 in experiment [1] and in experiment [2] was 0.1 to 1 µM each time.
